Results from PMC11637483, “Dissecting caspase-2-mediated cell death: from intrinsic PIDDosome activation to chemical modulation” (Protein & Cell, 2024).

Tested on: HeLa-CASP2/CASP3/GSDMD TKO + CASP2 cells (human caspase-2)
Experiment: ATP-based cell viability (CellTiter-Glo) in HeLa TKO cells with exogenous caspase-2 expression
Conditions: immunoblotting, HUHS015-treated cells
Source text: Specific chemical compounds are powerful tools for dissecting target-related signaling mechanisms in biological contexts ([Beck et al., 2022]; [Zhang et al., 2012]). Prompted by this notion and possibly to identify a compound that could activate the PIDDosome, we designed a cell death-based high-throughput chemical screen in HeLa cells, in which a triple knockout of CASP2, CASP3, and GSDMD were constructed. CASP3 and GSDMD deficiency served as the background to minimize compound-induced nonspecific cytotoxicity and undesired pyroptosis. Using the triple knockout cells as the control, additional expression of exogenous caspase-2 allows the identification of compounds that can specifically activate the caspase-2-BID pathway and trigger apoptosis through caspase-7. […] In accordance with the apoptosis induction, HUHS015 induced evident processing of caspase-2 expressed in the triple-knockout cells (Fig. 3B). This indicated activation of caspase-2 as the protease-deficient C320A mutant of caspase-2 was not processed upon HUHS015 treatment (Fig. 3B). Accordingly, expression of caspase-2 C320A rendered no cell death in response to HUHS015 treatment (Fig. 3B).
Figure 3. Chemical screen identifies HUHS015 as an agonist of human caspase-2. (A) Screen raw data and selectivity analyses of the compound plate containing HUHS015. The ATP-based viability data of both HeLa-CASP2^−/−CASP3^−/−GSDMD^−/− (TKO) (control group) and TKO cells with exogenous caspase-2 expression (experimental group) are shown. The ratios of the cell viability between the two groups are calculated with 3 as a cutoff for positive compound hit selection. (B) HUHS015-induced cell death depends on caspase-2 activity. HeLa TKO cells expressing WT or enzymatically deficient C320A mutant of caspase-2 were treated with HUHS015. ATP-based cell viability and immunoblotting of caspase-2 cleavage are shown. (C and F) The structures and potencies of HUHS15 (C) and its optimized derivative HUHS15-036 (F). HeLa TKO cells with exogenous caspase-2 expression were treated with titrated compounds. The ATP-based viability data were plotted with compound concentration for EC50 calculation. (D) BID is required for HUHS15-induced caspase-2-dependent cell death. […] Processing of caspase-2, -3, and -7 was analyzed by immunoblotting. […] ATP-based cell viability in panels (B and D) is expressed as mean ± s.d. from three technical replicates. […]
Cell viability was measured by the ATP assay using the CellTiter-Glo® Luminescent Cell Viability Assay kit (Promega).
Drug-related Screening Library (25 × 384-well plate, more than 7,000 compounds) was used for the chemical screen in the TKO HeLa cells rescued with exogenous caspase-2 expression. […] After treatment for 12 h, the cell viability was measured by the ATP assay. […]

zVAD [reference compound]
block of HUHS015-induced caspase-2 processing: not blocked
